Data from patent US20170209605A1, “CARBOHYDRATE FUNCTIONALIZED CATANIONIC SURFACTANT VESICLES FOR DRUG DELIVERY” (University of Maryland, College Park, priority 2007, published 2017).

Experiment: Incorporation of glycoconjugate into SDBS-rich vesicles (SEC, colorimetric detection)
Type: physicochemical
Conditions: SDBS/CTAT vesicles, twelve carbon tail
Text: In an experiment, glycoconjugates consisting of eight carbon tails were used. In all SDBS-rich vesicle test cases 18-25% of the conjugate eluted with the vesicle fractions. At the incorporation levels summarized in Table 1, the ratio of carbohydrate conjugate to surfactant is approximately 1:100. […] In another experiment, a glucose glycoconjugate with a twelve carbon tail, n-dodecyl-β-D-glucopyranoside (C12-glucose), was used. […] The method for preparing these vesicles is now described. Vesicles were prepared with the surfactants […], and C12-glu. […] Total surfactant concentration was kept constant at 27 mM. The mole ratio of SDBS to CTAT was 3:1 in all cases (70:30 w/w). For vesicle samples containing different mole fractions of C12-glu, the amount of SDBS and CTAT was adjusted accordingly to keep the stated ratio of ionic surfactants constant. […] Samples were then passed through a 0.45 μm syringe filter to remove impurity particles such as dust.

share of the vesicle bilayer that can be composed of the glycoconjugate: up to 40 mole percent
SMILES: CCCCCCCCCCCCO[C@@H]1O[C@H](CO)[C@@H](O)[C@H](O)[C@H]1O [C12-glucose, n-dodecyl-β-D-glucopyranoside]
